Experimental data as given in PMC3223156, “Designer Lipid-Like Peptides: A Class of Detergents for Studying Functional Olfactory Receptors Using Commercial Cell-Free Systems” (PLoS ONE, 2011).

Experiments:
Test in all cases: microscale thermophoresis, native tryptophan fluorescence, Hill fit n = […]
Assay type in all cases: binding
Conditions in all cases: read-out: Measured EC50
mOR174-9 = target: T1, mOR174-9 (Mus musculus, UniProt Q920P2)
T1 construct: gene Or5d18; full length; C-terminal GSSG linker plus rho1D4 tag (TETSQVAPA); E. coli cell-free expression in Brij-35, purified in FC-14
T1 sequence (Q920P2 1-313): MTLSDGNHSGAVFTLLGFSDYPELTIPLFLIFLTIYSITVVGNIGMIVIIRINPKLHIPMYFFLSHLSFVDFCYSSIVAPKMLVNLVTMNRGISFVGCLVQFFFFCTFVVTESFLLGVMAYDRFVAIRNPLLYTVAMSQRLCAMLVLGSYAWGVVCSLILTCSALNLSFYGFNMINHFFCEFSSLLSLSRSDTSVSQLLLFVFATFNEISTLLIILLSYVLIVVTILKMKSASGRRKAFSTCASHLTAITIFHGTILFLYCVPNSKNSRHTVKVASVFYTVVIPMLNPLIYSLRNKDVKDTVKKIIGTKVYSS

mOR174-4 = target: T2, mOR174-4 (Mus musculus, UniProt Q920P1)
T2 construct: gene Or5d47; full length; C-terminal GSSG linker plus rho1D4 tag (TETSQVAPA); E. coli cell-free expression in Brij-35, purified in FC-14
T2 sequence (Q920P1 1-318): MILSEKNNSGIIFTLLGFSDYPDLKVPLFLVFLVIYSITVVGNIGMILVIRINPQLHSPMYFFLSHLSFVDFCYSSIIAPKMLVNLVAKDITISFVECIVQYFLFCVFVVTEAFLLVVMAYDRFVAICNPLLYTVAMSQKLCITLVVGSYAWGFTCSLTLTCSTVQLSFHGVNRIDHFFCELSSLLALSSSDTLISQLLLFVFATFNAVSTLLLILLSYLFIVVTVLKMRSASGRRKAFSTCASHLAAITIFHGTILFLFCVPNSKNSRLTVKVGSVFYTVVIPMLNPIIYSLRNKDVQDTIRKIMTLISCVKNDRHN

mOR103-15 = target: T3, mOR103-15 (Mus musculus, UniProt Q9QWU6)
T3 construct: gene Or6a2; full length; C-terminal GSSG linker plus rho1D4 tag (TETSQVAPA); E. coli cell-free expression in Brij-35, purified in FC-14
T3 sequence (Q9QWU6 1-327): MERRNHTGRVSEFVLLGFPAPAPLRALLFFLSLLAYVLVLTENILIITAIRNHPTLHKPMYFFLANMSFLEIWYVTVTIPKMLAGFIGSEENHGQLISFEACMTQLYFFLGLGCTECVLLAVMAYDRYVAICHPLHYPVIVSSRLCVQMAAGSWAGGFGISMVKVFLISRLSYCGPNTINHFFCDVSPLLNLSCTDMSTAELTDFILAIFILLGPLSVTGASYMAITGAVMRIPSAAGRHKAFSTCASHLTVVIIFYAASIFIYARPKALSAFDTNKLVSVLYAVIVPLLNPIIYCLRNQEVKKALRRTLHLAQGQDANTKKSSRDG

Row | EC50 (mOR103-15) | SMILES | EC50 (mOR174-9) | EC50 (mOR174-4)
1 |  | CCOc1cc(C=O)ccc1O [Ethyl Vanillin] | 4.9 ± 3.5 µM | 7 ± 2 µM
2 | 2 ± 0.7 µM | CCCCCCC=O [Heptanal] |  | 
